From ChEMBL document CHEMBL5346962, “Discovery of Sulanemadlin (ALRN-6924), the First Cell-Permeating, Stabilized α-Helical Peptide in Clinical Development” (J Med Chem, 2023)
Active and inactive are the calls of the source. The rule behind the calls is not given here.

Legend:
[1] = Cmax in rat at 5 mg/kg by LC-MS/MS analysis; format: ADME, organism-based; parameters: dose 5 mg/kg; conditions: in vivo
[2] = test system: Fibroblast; assay: Protection against chemotherapy-induced apoptosis in human fibroblast assessed as decrease in caspase-3/7 level preincubated for 16 hrs followed by doxorubicin addition measured after 32 hrs; format: functional, cell-based; conditions: dose 4.6-10 µM, time 48.0 hrs
[3] = Half life in cynomolgous monkey at 10 mg/kg by LC-MS/MS analysis; format: ADME, organism-based, Macaca fascicularis; conditions: cynomolgus monkey, in vivo
[4] = test system: MCF7; assay: Antitumor activity against human MCF7 cells xenografted in athymic nude BALB/c mouse assessed as tumor regression at 20 mg/kg, iv measured upto 48 hrs by immunohistochemical analysis; format: functional, organism-based
[5] = test system: Fibroblast; assay: Protection against chemotherapy-induced apoptosis in human fibroblast assessed as decrease in caspase-3/7 level preincubated for 16 hrs followed by docetaxel trihydrate addition measured after 32 hrs; format: functional, cell-based; conditions: dose 4.6-10 µM, time 48.0 hrs
[6] = test system: Bone marrow cell; assay: Upregulation of Noxa mRNA level in bone marrow cells of C57BL/6 mouse at 10 mg/kg, iv measured for 24 hrs by qRT-PCR analysis; format: functional, organism-based
[7] = Plasma protein binding in human at 250 uM; format: ADME, cell-free; conditions: read-out: PPB (converted)
[8] = AUC (all) in rat at 5 mg/kg by LC-MS/MS analysis; format: ADME, organism-based; parameters: dose 5 mg/kg; conditions: in vivo
[9] = test system: Fibroblast; assay: Protection against chemotherapy-induced apoptosis in human fibroblast assessed as decrease in caspase-3/7 level preincubated for 16 hrs followed by carboplatin addition measured after 32 hrs; format: functional, cell-based; conditions: dose 4.6-10 µM, time 48.0 hrs
[10] = Drug excretion in bile-duct cannulated rat assessed as ALRN-8714 metabolite elimination at 10 mg/kg, iv measured for 8 hrs by LC-MS/MS analysis; format: ADME, organism-based; conditions: in vivo
[11] = Clearance in cynomolgous monkey at 10 mg/kg by LC-MS/MS analysis; format: ADME, organism-based, Macaca fascicularis; conditions: cynomolgus monkey, in vivo
[12] = test system: CTG-0449; assay: Antitumor activity against patient-derived human CTG-0449 cells xenografted in athymic nu/nu mouse model of AML assessed as tumor growth inhibition administered intravenously twice a week measured for 20 days; format: functional, cell-based; conditions: dose 10-20 mg/kg, route iv, time 20.0 day
[13] = test system: Fibroblast; assay: Protection against chemotherapy-induced apoptosis in human fibroblast assessed as decrease in caspase-3/7 level preincubated for 16 hrs followed by actinomycin D addition measured after 32 hrs; format: functional, cell-based; conditions: dose 4.6-10 µM, time 48.0 hrs
[14] = Cmax in cynomolgous monkey at 5 mg/kg by LC-MS/MS analysis; format: ADME, organism-based, Macaca fascicularis; parameters: dose 5 mg/kg; conditions: cynomolgus monkey, in vivo
[15] = Plasma protein binding in rat at 250 uM; format: ADME, cell-free; conditions: read-out: PPB (converted)
[16] = AUC (0 to 24 hrs) in plasma of athymic nu/nu mouse xenografted with human SJSA-1 cells at 25 mg/kg, iv measured for 24 hrs by LC-MS-MS analysis; format: ADME, organism-based; parameters: time 24 hrs, dose 25 mg/kg, route iv; conditions: in vivo
[17] = test system: MCF7; assay: Antitumor activity against human MCF7 cells xenografted in athymic nude BALB/c mouse assessed as increase in cPARP protein level at 20 mg/kg, iv by immunohistochemical analysis; format: functional, organism-based; conditions: time <= 48.0 hrs, TDE = time-dependent effect
[18] = test system: SJSA-1; assay: Antitumor activity against human SJSA-1 cells xenografted in athymic nu/nu mouse […] assessed as tumor growth inhibition administered intravenously thrice a week measured for 15 days; format: functional, cell-based; conditions: dose 13.3 mg/kg, route iv, time 15.0 day
[19] = test system: BT-474; assay: […] chemotherapy-induced apoptosis in human BT-474 cells assessed as decrease in caspase-3/7 level at 4.6 to 10 uM preincubated for 16 hrs followed by doxorubicin addition measured after 32 hrs; format: functional, cell-based; conditions: dose 4.6-10 µM, time 48.0 hrs
[20] = test system: Bone marrow cell; assay: Downregulation of cPARP expression level in bone marrow cells of C57BL/6 mouse at 2.4 mg/kg, iv administered every 8 hrs measured for 16 hrs by immunohistochemical analysis; format: functional, organism-based
[21] = AUC (all) in rat at 2.5 mg/kg by LC-MS/MS analysis; format: ADME, organism-based; parameters: dose 2.5 mg/kg; conditions: in vivo
[22] = Half life in mouse at 5 mg/kg by LC-MS/MS analysis; format: ADME, organism-based; conditions: in vivo
[23] = test system: Fibroblast; assay: Protection against chemotherapy-induced apoptosis in human fibroblast assessed as decrease in caspase-3/7 level preincubated for 16 hrs followed by SN-38 addition measured after 32 hrs; format: functional, cell-based; conditions: dose 4.6-10 µM, time 48.0 hrs
[24] = AUC (all) in mouse at 5 mg/kg by LC-MS/MS analysis; format: ADME, organism-based; parameters: dose 5 mg/kg; conditions: in vivo
[25] = Toxicity in monkey assessed as NOAEL administered twice weekly for 4 weeks; parameters: species or system Macaca mulatta; conditions: rhesus monkey, in vivo
[26] = Induction of cell cycle arrest in human CD34+ cells assessed as accumulation at S phase at 10 uM incubated for 24 hrs by flow cytometry (reference value: 27.5 +/- 5.8%); format: toxicity, cell-based; conditions: cd34-positive (myeloid/lymphoid) cell
[27] = AUC (all) in rat at 10 mg/kg by LC-MS/MS analysis; format: ADME, organism-based; parameters: dose 10 mg/kg; conditions: in vivo
[28] = test system: Bone marrow cell; assay: Protection against cell cycle arrest at S phase in bone marrow cells of C57BL/6 mouse at 10 mg/kg, iv measured for 8 hrs by FACS analysis; format: functional, organism-based
[29] = Cmax in mouse at 5 mg/kg by LC-MS/MS analysis; format: ADME, organism-based; parameters: dose 5 mg/kg; conditions: in vivo
[30] = test system: Bone marrow cell; assay: Upregulation of p21 mRNA level in bone marrow cells of C57BL/6 mouse at 2.4 mg/kg, iv measured for 24 hrs by qRT-PCR analysis; format: functional, organism-based
[31] = Plasma protein binding in mouse at 250 uM; format: ADME, cell-free; conditions: read-out: PPB (converted)
[32] = Toxicity in rat assessed as NOAEL administered twice weekly for 4 weeks; conditions: in vivo
[33] = test system: Bone marrow cell; assay: Upregulation of Puma mRNA level in bone marrow cells of C57BL/6 mouse at 10 mg/kg, iv measured for 24 hrs by qRT-PCR analysis; format: functional, organism-based
[34] = test system: Bone marrow cell; assay: Downregulation of Ki67 expression level in bone marrow cells of C57BL/6 mouse at 2.4 mg/kg, iv administered every 8 hrs measured for 16 hrs by immunohistochemical analysis; format: functional, organism-based
[35] = Clearance in mouse at 5 mg/kg by LC-MS/MS analysis; format: ADME, organism-based; conditions: in vivo
[36] = Plasma protein binding in human at 2 to 50 uM; format: ADME, cell-free; conditions: dose 2-50 µM, read-out: PPB (converted)
[37] = test system: Bone marrow cell; assay: Upregulation of p21 expression level in bone marrow cells of C57BL/6 mouse at 2.4 mg/kg, iv administered every 8 hrs measured for 16 hrs by immunohistochemical analysis; format: functional, organism-based
[38] = Plasma protein binding in human assessed as unbound fraction upto 150 uM; format: ADME, cell-free
[39] = Drug uptake in plasma of athymic nu/nu mouse xenografted with human SJSA-1 cells assessed as AUC (0 to 24 hrs) of metabolite ALRN-8714 at 25 mg/kg, iv measured for 24 hrs by LC-MS-MS analysis; format: ADME, organism-based; parameters: time 24 hrs, dose 25 mg/kg, route iv; conditions: in vivo
[40] = Half life in rat at 10 mg/kg by LC-MS/MS analysis; format: ADME, organism-based; conditions: in vivo
[41] = Clearance in rat at 5 mg/kg by LC-MS/MS analysis; format: ADME, organism-based; conditions: in vivo
[42] = Clearance in cynomolgous monkey at 5 mg/kg by LC-MS/MS analysis; format: ADME, organism-based, Macaca fascicularis; conditions: cynomolgus monkey, in vivo
[43] = test system: Fibroblast; assay: Protection against chemotherapy-induced apoptosis in human fibroblast assessed as decrease in caspase-3/7 level preincubated for 16 hrs followed by paclitaxel addition measured after 32 hrs; format: functional, cell-based; conditions: dose 4.6-10 µM, time 48.0 hrs
[44] = Drug uptake in tumor of athymic nu/nu mouse xenografted with human SJSA-1 cells assessed as AUC (0 to 24 hrs) of metabolite ALRN-8714 at 25 mg/kg, iv measured for 24 hrs by LC-MS-MS analysis; format: ADME, organism-based, Neoplasm; parameters: dose 25 mg/kg, time 24 hrs, route iv; conditions: in vivo

In the case of CC(=O)N[C@@H](CC(C)C)C(=O)N[C@H](C(=O)N[C@@H](Cc1ccccc1)C(=O)N[C@]1(C)CCCCCC/C=C/CCC[C@@](C)(C(=O)N[C@@H](C)C(=O)N[C@@H](C)C(=O)N[C@@H](C)C(=O)N[C@@H](C)C(=O)N[C@@H](C)C(=O)N[C@H](C)C(N)=O)NC(=O)[C@H](CC(C)C)NC(=O)[C@H](CCC(N)=O)NC(=O)[C@H](C)NC(=O)[C@H](Cc2c[nH]c3ccccc23)NC(=O)[C@H](Cc2ccc(O)cc2)NC(=O)[C@H](CCC(=O)O)NC1=O)[C@@H](C)O, the Cmax [1] is reported as 95.9 µg/mL, the Activity [2] is reported as “Dose-Dependent Effect” and the half-life [3] is reported as 5.5 h. The Activity [4] was “inactive”, the Activity [5] was “Dose-Dependent Effect” and the Activity [6] was “Active”. The fraction unbound at 250 µM [7] was 0.19, the AUC [8] was 223 µg·h/mL and the Activity [9] was “Dose-Dependent Effect”. The Drug excretion [10] was “Active”, the clearance [11] was 0.127 mL/min/kg and the Activity [12] was “Dose-Dependent Effect”. For the same compound, the Activity [13] was “Dose-Dependent Effect”, the Cmax [14] was 137 µg/mL and the fraction unbound at 250 µM [15] was 0.02. The AUC [16] was 3180 µg·h/mL, the Activity [17] was “Tde” and the Activity [18] was “Dose-Dependent Effect”. For the same compound, the Activity [19] was “inactive”, the Activity [20] was “Active” and the AUC [21] was 90.5 µg·h/mL. For the same compound, the half-life [22] was 2.2 h, the Activity [23] was “Dose-Dependent Effect” and the AUC [24] was 450 µg·h/mL. For the same compound, the NOAEL at 672 h [25] was 5 mg/kg, the Activity [26] was 0.22% and the AUC [27] was 562 µg·h/mL. For the same compound, the Activity [28] was “Active”, the Cmax [29] was 67.8 µg/mL and the Activity [30] was “Active”. For the same compound, the fraction unbound at 250 µM [31] was 0.02, the NOAEL at 672 h [32] was 2.5 mg/kg and the Activity [33] was “Active”. The Activity [34] was “Active”, the clearance [35] was 0.183 mL/min/kg and the fraction unbound at up to 50 µM [36] was 0.08. The Activity [37] was “Active”, the fraction unbound at up to 150 µM [38] was 0.03 and the AUC [39] was 85 µg·h/g. It also gave a half-life [40] of 3.8 h, a clearance [41] of 0.4 mL/min/kg and a clearance [42] of 0.0983 mL/min/kg. The Activity [43] was “Dose-Dependent Effect” and the AUC [44] was 128 µg·h/g.
